From US4092313A, “Preparation of 5-fluoropyrimidin-4-one derivatives” (Taisho Pharmaceutical Company Limited, priority 1975, dated 1978)

Legend:
[1] = Acute toxicity, oral administration to mice, LD50 (method of Litchfield and Wilcoxon); format: in vivo; details: mouse, in vivo; for LD50 at 336 h: checked 2 weeks later; for LD50 at 504 h: checked 3 weeks later; for LD50 at 72 h: checked 3 days later; for LD50 at 168 h: checked one week later, read-out: LD50, 1 Week
From the text: (§1) The compound of this invention is orally administered to mice, and the mice are checked 3 days, one week, 2 weeks and 3 weeks later for motality in terms of LD50 calculated according to the method of Litchfield and Wilcoxon.

sarcoma 180 = assay: Anti-tumor effect, sarcoma 180 subcutaneously transplanted in mouse; format: in vivo; details: oral, once daily for 7 days, tumor weighed on 10th day
Experimental: (§2) Cells of Ehrlich carcinoma or sarcoma 180, 5 × 10^6 in number, are subcutaneously transplanted in a mouse. Twenty-four hours after the transplantation and during a subsequent period, the compound of this invention is orally given to the test animal once every day for 7 consecutive days. On the 10th day from the transplantation, the weight of tumor in the test animal is measured to determine the percentage of inhibition achieved by the compound relative to the weight of tumor in the control group.

Ehrlich carcinoma = assay: Anti-tumor effect, Ehrlich carcinoma subcutaneously transplanted in mouse; format: in vivo; details: oral, once daily for 7 days, tumor weighed on 10th day
Experimental: as §2

mice = assay: Acute toxicity, oral administration to mice, LD50 (method of Litchfield and Wilcoxon); format: in vivo
From the text: as §1

[2] = continued administration, clinical; cited from earlier work
transplanted tumors = details: literature; cited from earlier work

## O=c1[nH]c(OCc2ccccc2)ncc1F [2-Benzyloxy-5-fluoropyrimidin-4-one, 2-benzyloxy-5-fluoropyrimidin-4-one]
[1]
  LD50 at 336 h: 894 mg/kg
  LD50 at 504 h: 894 mg/kg
  LD50 at 72 h: 894 mg/kg
  LD50 at 168 h: 894 mg/kg
Sarcoma 180; 90 mg/kg/day
  Inhibition percentage, sarcoma 180 (tumor weight relative to control): 70%
Ehrlich carcinoma; 90 mg/kg/day
  Inhibition percentage, Ehrlich carcinoma (tumor weight relative to control): 52%

## CCCCOc1ncc(F)c(=O)[nH]1 [2-n-Butoxy-5-fluoropyrimidin-4-one, 2-n-butoxy-5-fluoropyrimidin-4-one]
[1]
  LD50 at 336 h: 945 mg/kg
  LD50 at 504 h: 945 mg/kg
  LD50 at 72 h: 945 mg/kg
  LD50 at 168 h: 945 mg/kg
Sarcoma 180; 90 mg/kg/day
  Inhibition percentage, sarcoma 180 (tumor weight relative to control): 62%
Ehrlich carcinoma; 90 mg/kg/day
  Inhibition percentage, Ehrlich carcinoma (tumor weight relative to control): 64%

## O=c1[nH]cc(F)c(=O)[nH]1 [5-Fluorouracil, 5-fluorouracil, reference compound]
mice; checked 2 weeks later, 20160 min
  LD50, 2 Weeks: 145 mg/kg
mice; checked one week later, 10080 min
  LD50, 1 Week: 200 mg/kg
[2]
  side effects: loss of appetite, stomatitis, nausea, vomiting and like gastrointestinal disorders, leukopenia, thrombocytopenia and like disorders in the blood, disorders in the liver and kidney
Sarcoma 180; 30 mg/kg/day
  Inhibition percentage, sarcoma 180 (tumor weight relative to control): 64%
Ehrlich carcinoma; 30 mg/kg/day
  Inhibition percentage, Ehrlich carcinoma (tumor weight relative to control): 61%
Transplanted tumors
  inhibition of transplanted tumors: found to inhibit transplanted tumors
